Assay [1] deals with T1, His-tagged recombinant human MER cytoplasmic domain (Homo sapiens, UniProt Q12866).
T1 construct: His-tagged recombinant human MER cytoplasmic domain
T1 sequence (Q12866 527-999 limits assumed): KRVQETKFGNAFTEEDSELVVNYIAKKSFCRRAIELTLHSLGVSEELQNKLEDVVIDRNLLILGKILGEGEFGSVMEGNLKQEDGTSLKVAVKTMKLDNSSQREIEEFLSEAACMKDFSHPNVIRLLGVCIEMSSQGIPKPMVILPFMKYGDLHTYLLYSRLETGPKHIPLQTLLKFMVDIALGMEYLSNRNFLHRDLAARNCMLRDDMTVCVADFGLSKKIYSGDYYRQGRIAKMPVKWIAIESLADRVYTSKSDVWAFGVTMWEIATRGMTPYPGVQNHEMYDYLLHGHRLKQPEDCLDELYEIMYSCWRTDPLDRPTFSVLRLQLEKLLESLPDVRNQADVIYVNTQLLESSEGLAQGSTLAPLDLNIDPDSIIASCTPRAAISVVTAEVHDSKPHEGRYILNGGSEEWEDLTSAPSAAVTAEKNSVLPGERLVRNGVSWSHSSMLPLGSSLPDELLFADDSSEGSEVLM
The assay is described as follows: MER Enzyme Assay (LanthaScreen Eu Kinase Binding). As to conditions: averaged IC50; MER 5 nM; 60-minute incubation at 22° C.; TR-FRET. As to the method:
Compounds disclosed herein were screened for their ability to inhibit […] kinase using Invitrogen's LanthaScreen™Eu Kinase Binding technology. His-tagged recombinant human MER cytoplasmic domain (5 nM) was incubated with 20 nM Alexa-Fluor® Tracer 236 (PR9078A), 2 nM biotinylated anti-His (Cat. No. M4408), and 2 nM europium-labeled Streptavidin (Cat. No. PV5899) along with test compound in a buffer consisting of 25 mM HEPES, pH 7.4, 10 mM MgCl 2, 0.01% Triton X-100, and 2% DMSO. Compounds were typically prepared in a threefold serial dilution in DMSO and added to the assay to give the appropriate final concentration. After a 60-minute incubation at 22° C., the reaction was measured using a PerkinElmer EnVision multimode plate reader via TR-FRET dual wavelength detection, and the percent of control (POC) was calculated using a ratiometric emission factor. […] The POC values are fit to a 4 parameter logistic curve and the IC50 value is point where the curve crosses 50 POC.

Assay [2] has as its target T2, human MET kinase D1228H (Homo sapiens, UniProt P08581, D1228H).
T2 construct: GST-tagged recombinant human MET kinase domain; purchased Signal Chem
The assay is described as follows: c-Met Enzyme Assay, D1228H mutant. Format: binding. Conditions: averaged IC50; D1228H 2 nM; 60-minute incubation at 22° C.; read-out: D1228 H IC50. As to the method:
(§1) The affinity of compound binding to wild type and mutant human MET kinases was measured using Invitrogen's LanthaScreen™ Eu Kinase Binding technology. Briefly, GST-tagged recombinant human MET kinase domain from Signal Chem (see Table 8 below for concentration in assay) was incubated with 50 nM Alexa-Fluor® Tracer 236 (Invitrogen Cat No. PR9078A) and 2 nM Europium-anti-GST (Invitrogen Cat. No. A15116) along with test compound in a buffer consisting of 25 mM HEPES, pH 7.4, 10 mM MgCl2, 0.01% Triton X-100, 1mM DTT, and 2% DMSO. Compounds were typically prepared in a three-fold serial dilution in DMSO and added to the assay to give the appropriate final concentration. After a 60-minute incubation at 22° C., the reaction was measured using a PerkinElmer EnVision multimode plate reader via TR-FRET dual wavelength detection, and the percent of control (POC) calculated using a ratiometric emission factor. […] The POC values were fit to a 4 parameter logistic curve and the IC50 value is point where the curve crosses 50 POC.

Assay [3] addresses T3, human MET kinase D1228N (Homo sapiens, UniProt P08581, D1228N).
T3 construct: GST-tagged recombinant human MET kinase domain; purchased Signal Chem
Kind of assay: c-Met Enzyme Assay, D1228N mutant. Format: binding. As to conditions: averaged IC50; D1228N 2 nM; 60-minute incubation at 22° C.; read-out: D1228 N IC50. As to the method: as §1

Assay [4] addresses T4, human MET kinase F1200I (Homo sapiens, UniProt P08581, F1200I).
T4 construct: GST-tagged recombinant human MET kinase domain; purchased Signal Chem
Kind of assay: c-Met Enzyme Assay, F1200I mutant. Format: binding. Conditions: averaged IC50; F1200I 2 nM; 60-minute incubation at 22° C. As to the method: as §1

The target of assay [5] is T5, human MET kinase L1195V (Homo sapiens, UniProt P08581, L1195V).
T5 construct: GST-tagged recombinant human MET kinase domain; purchased Signal Chem
Kind of assay: c-Met Enzyme Assay, L1195V mutant. Format: binding. Conditions: averaged IC50; L1195V 10 nM; 60-minute incubation at 22° C. As to the method:
as §1

In assay [6] the target is T6, human MET kinase Y1230C (Homo sapiens, UniProt P08581, Y1230C).
T6 construct: GST-tagged recombinant human MET kinase domain; purchased Signal Chem
The assay is described as follows: c-Met Enzyme Assay, Y1230C mutant. It counts as binding. Conditions: averaged IC50; Y1230C 2 nM; 60-minute incubation at 22° C.; read-out: Y1230 C IC50. As for the experimental part: as §1

Assay [7] concerns the target T7, human MET kinase Y1230H (Homo sapiens, UniProt P08581, Y1230H).
T7 construct: GST-tagged recombinant human MET kinase domain; purchased Signal Chem
The assay is described as follows: c-Met Enzyme Assay, Y1230H mutant. As to conditions: averaged IC50; Y1230H 5 nM; 60-minute incubation at 22° C.; read-out: Y1230 H IC50. It counts as binding. As for the experimental part:
as §1

The target of assay [8] is T8, human MET kinase Y1230S (Homo sapiens, UniProt P08581, Y1230S).
T8 construct: GST-tagged recombinant human MET kinase domain; purchased Signal Chem
Kind of assay: c-Met Enzyme Assay, Y1230S mutant. Format: binding. Conditions: averaged IC50; Y1230S 8 nM; 60-minute incubation at 22° C.; read-out: Y1230 S IC50. As for the experimental part: as §1

Molecules are shown by their SMILES.

T4 sequence (P08581 1078-1345 F1200I limits assumed): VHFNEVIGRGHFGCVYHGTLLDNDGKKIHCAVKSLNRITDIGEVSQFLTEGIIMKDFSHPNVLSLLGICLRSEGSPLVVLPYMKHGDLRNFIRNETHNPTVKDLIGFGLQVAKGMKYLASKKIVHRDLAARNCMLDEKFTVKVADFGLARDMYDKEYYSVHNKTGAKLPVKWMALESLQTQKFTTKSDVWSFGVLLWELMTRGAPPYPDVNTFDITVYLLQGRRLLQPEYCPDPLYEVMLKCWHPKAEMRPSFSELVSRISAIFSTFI
T3 sequence (P08581 1078-1345 D1228N): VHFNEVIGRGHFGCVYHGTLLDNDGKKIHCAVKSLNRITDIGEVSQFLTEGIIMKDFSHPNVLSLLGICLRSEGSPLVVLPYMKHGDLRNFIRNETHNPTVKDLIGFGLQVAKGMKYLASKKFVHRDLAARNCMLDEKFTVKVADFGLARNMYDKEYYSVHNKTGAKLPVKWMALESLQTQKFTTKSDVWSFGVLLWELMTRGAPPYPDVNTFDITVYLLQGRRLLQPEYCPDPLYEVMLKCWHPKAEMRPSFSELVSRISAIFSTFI
T8 sequence (P08581 1078-1345 Y1230S): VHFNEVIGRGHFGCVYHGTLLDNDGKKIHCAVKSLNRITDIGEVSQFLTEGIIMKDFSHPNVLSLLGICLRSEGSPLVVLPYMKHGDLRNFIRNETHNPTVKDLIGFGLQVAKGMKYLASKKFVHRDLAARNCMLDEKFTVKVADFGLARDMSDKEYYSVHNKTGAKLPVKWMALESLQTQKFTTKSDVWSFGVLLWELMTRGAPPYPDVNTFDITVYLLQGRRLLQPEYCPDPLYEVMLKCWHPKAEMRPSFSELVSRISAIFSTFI
T7 sequence (P08581 1078-1345 Y1230H): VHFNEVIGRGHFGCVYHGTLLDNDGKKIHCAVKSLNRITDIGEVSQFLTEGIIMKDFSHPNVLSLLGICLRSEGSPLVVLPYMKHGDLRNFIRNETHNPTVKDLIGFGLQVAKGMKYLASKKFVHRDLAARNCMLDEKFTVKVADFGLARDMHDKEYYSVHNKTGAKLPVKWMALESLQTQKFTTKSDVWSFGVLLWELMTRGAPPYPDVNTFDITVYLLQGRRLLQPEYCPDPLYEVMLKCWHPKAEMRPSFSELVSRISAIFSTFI
T2 sequence (P08581 1078-1345 D1228H): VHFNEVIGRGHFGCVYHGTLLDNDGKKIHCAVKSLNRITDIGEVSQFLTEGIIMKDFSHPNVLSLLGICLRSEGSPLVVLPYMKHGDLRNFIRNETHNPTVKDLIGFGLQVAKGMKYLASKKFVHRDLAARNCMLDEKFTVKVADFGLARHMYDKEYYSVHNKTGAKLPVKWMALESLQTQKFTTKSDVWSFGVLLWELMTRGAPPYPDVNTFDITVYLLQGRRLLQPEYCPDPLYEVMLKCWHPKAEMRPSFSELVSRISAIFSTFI
T6 sequence (P08581 1078-1345 Y1230C): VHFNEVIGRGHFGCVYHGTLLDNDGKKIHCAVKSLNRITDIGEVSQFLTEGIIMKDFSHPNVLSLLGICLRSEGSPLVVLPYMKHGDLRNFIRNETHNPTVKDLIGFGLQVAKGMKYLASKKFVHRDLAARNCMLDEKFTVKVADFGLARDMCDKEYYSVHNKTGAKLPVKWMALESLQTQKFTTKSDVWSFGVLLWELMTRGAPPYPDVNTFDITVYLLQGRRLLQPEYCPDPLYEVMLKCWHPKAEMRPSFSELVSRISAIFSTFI
T5 sequence (P08581 1078-1345 L1195V limits assumed): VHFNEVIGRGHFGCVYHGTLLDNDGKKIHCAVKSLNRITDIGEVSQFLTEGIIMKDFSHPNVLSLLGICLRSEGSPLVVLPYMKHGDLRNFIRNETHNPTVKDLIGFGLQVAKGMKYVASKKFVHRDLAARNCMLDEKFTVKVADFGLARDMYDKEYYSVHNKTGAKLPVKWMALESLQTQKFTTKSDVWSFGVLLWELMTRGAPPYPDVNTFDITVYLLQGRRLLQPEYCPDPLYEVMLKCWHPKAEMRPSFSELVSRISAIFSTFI

Regarding `COc1ccc(-c2cn(C(C)C)cc(C(=O)Nc3ccc(Oc4ccnc5cc(OC)c(OC)cc45)cn3)c2=O)c(F)c1` [Example 31, N-(5-((6,7-dimethoxyquinolin-4yl)oxy)pyridin-2-yl)-5-(2-fluoro-4-methoxyphenyl)-1-isopropyl-4-oxo-1,4-dihydropyridine-3-carboxamide], the IC50 in assay [1] worked out at 0.005 µM; in assay [2], 0.0557 µM; in assay [3], 0.0627 µM; in assay [4], 0.0465 µM; in assay [5], 0.0591 µM; in assay [6], 0.0693 µM. The IC50 in assay [7] stood at 0.0982 µM; in assay [8], 0.0721 µM.

Regarding `CCn1cc(C(=O)Nc2ccc(Oc3ccnc4ccc(OC)cc34)cn2)c(=O)c(-c2ccc(F)cc2)c1` [Example 39, 1-ethyl-5-(4-fluorophenyl)-N-(5-((6-methoxyquinolin-4-yl)oxy)pyridin-2-yl)-4-oxo-1,4-dihydropyridine-3-carboxamide], the IC50 in assay [1] worked out at 0.016 µM; in assay [2], 0.0663 µM; in assay [3], 0.179 µM; in assay [4], 0.0316 µM; in assay [5], 0.508 µM; in assay [6], 0.047 µM. Moreover, the IC50 in assay [7] worked out at 0.209 µM; in assay [8], 0.0553 µM.

Take `COc1cc2nccc(Oc3ccc(NC(=O)c4cn(CC(C)C)cc(-c5ccc(F)cc5)c4=O)nc3)c2cc1OC` [Example 11, N-(5-((6,7-dimethoxyquinolin-4-yl)oxy)pyridin-2-yl)-5-(4-fluorophenyl)-1-isobutyl-4-oxo-1,4-dihydropyridine-3-carboxamide]: the IC50 in assay [1] is 0.016 µM; in assay [2] it was 0.0065 µM; in assay [3], 0.0094 µM; in assay [4], 0.0069 µM; in assay [5], 0.0214 µM; in assay [6], 0.0065 µM. Moreover, the IC50 in assay [7] turned out to be 0.0093 µM; in assay [8], 0.0049 µM.

Take `CCC(CC)n1cc(C(=O)Nc2ccc(Oc3ccnc4cc(OC)c(OC)cc34)cn2)c(=O)c(-c2ccc(F)cc2F)c1` [Example 16, 5-(2,4-difluorophenyl)-N-(5-((6,7-dimethoxyquinolin-4yl)oxy)pyridin-2-yl)-4-oxo-1-(pentan-3-yl)-1,4-dihydropyridine-3-carboxamide]: the IC50 in assay [1] is 0.009 µM; in assay [2], 0.0054 µM; in assay [3], 0.0081 µM; in assay [4] it was 0.0068 µM; in assay [5], 0.0346 µM; in assay [6], 0.0061 µM. The IC50 in assay [7] turned out to be 0.0077 µM; in assay [8] it was 0.006 µM.

Take `COc1cc2nccc(Oc3ccc(NC(=O)c4cn(C(C)C)cc(-c5ccc(F)cc5F)c4=O)nc3)c2cc1OC` [Example 4]: the IC50 stood at 0.002 µM in assay [1]; 0.0032 µM in assay [2]; 0.0065 µM in assay [3]; 0.003 µM in assay [4]; 0.0219 µM in assay [5]; 0.0028 µM in assay [6]. Moreover, the IC50 is 0.0049 µM in assay [7] and 0.0022 µM in assay [8].

With `COc1cc2nccc(Oc3ccc(NC(=O)c4cn(CC(=O)N(C)C)cc(-c5ccc(Cl)cc5)c4=O)nc3)c2cc1OC` [Example 25], the half-maximal inhibitory concentration (IC50) in assay [1] turned out to be 0.005 µM; in assay [2], 0.0223 µM; in assay [3], 0.0378 µM; in assay [4] it was 0.0115 µM; in assay [5], 0.0187 µM; in assay [6], 0.0104 µM. Also, the IC50 in assay [7] stood at 0.0212 µM; in assay [8] it was 0.008 µM.

With `COc1cc2nccc(Oc3ccc(NC(=O)c4cn(C(C)C)cc(-c5ccc(F)c(F)c5)c4=O)nc3)c2cc1OC` [Example 6], the IC50 in assay [1] is 0.005 µM; in assay [2] it was 0.0121 µM; in assay [3], 0.0242 µM; in assay [4] it was 0.0081 µM; in assay [5], 0.0621 µM; in assay [6], 0.0124 µM. Further, the IC50 in assay [7] came out at 0.0242 µM; in assay [8], 0.0119 µM.

As for `COc1cc2nccc(Oc3ccc(NC(=O)c4cn(C(C)C)cc(-c5ccc(F)cc5)c4=O)cn3)c2cc1OC` [Example 58, N-(6-((6,7-dimethoxyquinolin-4-yl)oxy)pyridin-3-yl)-5-(4-fluorophenyl)-1-isopropyl-4-oxo-1,4-dihydropyridine-3-carboxamide], the IC50 in assay [1] was 0.002 µM; in assay [2], 0.0035 µM; in assay [3], 0.0077 µM; in assay [4] it was 0.0035 µM; in assay [5] it was 0.035 µM; in assay [6], 0.0022 µM. For the same compound, the figures for the IC50 in assay [7] and in assay [8] were 0.0053 µM and 0.0027 µM, respectively.

`COc1cc2nc(C)cc(Oc3ccc(NC(=O)c4cn(C(C)C)cc(-c5ccc(F)cc5)c4=O)nc3)c2cc1OC` [Example 53, N-(5-((6,7-dimethoxy-2-methylquinolin-4-yl)oxy)pyridin-2-yl)-5-(4-fluorophenyl)-1-isopropyl-4-oxo-1,4-dihydropyridine-3-carboxamide]: the IC50 is 0.95 µM in assay [1]; 4.22 µM in assay [2]; 3.69 µM in assay [4]; 3.31 µM in assay [6]; 1.67 µM in assay [7]; 3.71 µM in assay [8].

As to `COc1cc2ncc(C#N)c(Oc3ccc(NC(=O)c4cn(C(C)C)cc(-c5ccc(F)cc5)c4=O)nc3)c2cc1OC` [Example 57, N-(5-((3-cyano-6,7-dimethoxyquinolin-4-yl)oxy)pyridin-2-yl)-5-(4-fluorophenyl)-1-isopropyl-4-oxo-1,4-dihydropyridine-3-carboxamide], the IC50 in assay [1] turned out to be 0.029 µM; in assay [2], 0.532 µM; in assay [3] it was 1.06 µM; in assay [4], 0.346 µM; in assay [6], 0.526 µM; in assay [7] it was 0.789 µM. Further, in assay [8], the IC50 turned out to be 0.514 µM.

Regarding `COc1cc2nccc(Oc3ccc(NC(=O)c4c[nH]cc(-c5ccc(F)cc5)c4=O)nc3)c2cc1OC` [Example 26, N-(5-((6,7-dimethoxyquinolin-4yl)oxy)pyridin-2-yl)-5-(4-fluorophenyl)-4-oxo-1,4-dihydropyridine-3-carboxamide], the IC50 is 0.005 µM in assay [1]; 0.0125 µM in assay [2]; 0.0192 µM in assay [3]; 0.0064 µM in assay [4]; 0.0065 µM in assay [6]; 0.017 µM in assay [7]. Further, the 50% inhibitory concentration (IC50) in assay [8] came out at 0.0091 µM.

Take `COc1cc2nccc(Oc3ccc(NC(=O)c4cn(C(C)C)c(C(C)C)c(-c5ccc(F)cc5)c4=O)nc3)c2cc1OC` [Example 38, N-(5-((6,7-dimethoxyquinolin-4yl)oxy)pyridin-2-yl)-5-(4-fluorophenyl)-1,6-diisopropyl-4-oxo-1,4-dihydropyridine-3-carboxamide]: in assay [1], the IC50 turned out to be 0.006 µM.

Broadly, the IC50 is the midpoint of a concentration-inhibition curve.

Source of the values: patent US20200216416A1, “QUINOLINE COMPOUNDS AS INHIBITORS OF TAM AND MET KINASES” (Array BioPharma Inc., priority 2019, published 2020).
